Measurements published in patent US20040186273A1 (V.I. Technologies, Inc., priority 2000, published 2004).

Biological target: radiolabelled octapeptide repeat peptide *acetyl…amide
Details: not given

“peptide 110, IQIWIF, on Toyopearl resin, free amino terminal” and “peptide 111, LWWLFV, on Toyopearl resin, free amino terminal” are the same in % unbound [14C]: 85% for the first, 85% for the second.

First: peptide 97, QLGHQW, on Toyopearl resin, free amino terminal
Second: peptide 101, WIPPYN, on Toyopearl resin, free amino terminal
The % unbound [14C] of the first is higher: 85% for the first, 84% for the second.

Molecule “peptide 116, WLVWIA, on Toyopearl resin, free amino terminal” has a % unbound [14C] of 85%.

Biological target: radiolabelled octapeptide repeat peptide *acetyl…amide
Details: not given
Remark: another data set of the same source

Going from SNYGPY (modifications not checked) [peptide 99, SNYGPY, on Toyopearl resin, free amino terminal] to LAWFWR (modifications not checked) [peptide 88, LAWFWR, on Toyopearl resin, free amino terminal], the % unbound [14C] rises from 79% to 90%.

SLEEYV (modifications not checked) [peptide 95, SLEEYV, on Toyopearl resin, free amino terminal] and LLIWIP (modifications not checked) [peptide 84, LLIWIP, on Toyopearl resin, free amino terminal] are the same in % unbound [14C]: 89% for the first, 89% for the second.

Going from GFFFWW (modifications not checked) [peptide 89, GFFFWW, on Toyopearl resin, free amino terminal] to LRVIIS (modifications not checked) [peptide 96, LRVIIS, on Toyopearl resin, free amino terminal], the % unbound [14C] rises from 23% to 90%.

First: QWWFII (modifications not checked) [peptide 114, QWWFII, on Toyopearl resin, free amino terminal]
Second: YVFNWY (modifications not checked) [peptide 87, YVFNWY, on Toyopearl resin, free amino terminal]
The % unbound [14C] of the first is higher: 87% for the first, 45% for the second.

Compared with WEFYWF (modifications not checked) [peptide 86, WEFYWF, on Toyopearl resin, free amino terminal], SFPYYY (modifications not checked) [peptide 92, SFPYYY, on Toyopearl resin, free amino terminal] is higher in % unbound [14C]: 76% for the first, 90% for the second.

First: YFIWWE (modifications not checked) [peptide 91, YFIWWE, on Toyopearl resin, free amino terminal]
Second: FYVFTA (modifications not checked) [peptide 90/98, FYVFTA, on Toyopearl resin, free amino terminal]
The % unbound [14C] of the first is lower: 58% for the first, 82% for the second.

First: WLYWIP (modifications not checked) [peptide 85, WLYWIP, on Toyopearl resin, free amino terminal]
Second: LEIRLA (modifications not checked) [peptide 93, LEIRLA, on Toyopearl resin, free amino terminal]
The % unbound [14C] of the first is lower: 90% for the first, 96% for the second.

Compared with HKEQGA (modifications not checked) [peptide 119, HKEQGA, on Toyopearl resin, free amino terminal], IFFWIK (modifications not checked) [peptide 112, IFFWIK, on Toyopearl resin, free amino terminal] is lower in % unbound [14C]: 91% for the first, 77% for the second.

LLLVIA (modifications not checked) [peptide 94, LLLVIA, on Toyopearl resin, free amino terminal] and YWFIYI (modifications not checked) [peptide 117, YWFIYI, on Toyopearl resin, free amino terminal] are the same in % unbound [14C]: 83% for the first, 83% for the second.

Compared with RWIISL (modifications not checked) [peptide 113, RWIISL, on Toyopearl resin, free amino terminal], TGIPII (modifications not checked) [peptide 118, TGIPII, on Toyopearl resin, free amino terminal] is lower in % unbound [14C]: 89% for the first, 88% for the second.

Compared with VFEYIK (modifications not checked) [peptide 115, VFEYIK, on Toyopearl resin, free amino terminal], WFPHFF (modifications not checked) [peptide 102, WFPHFF, on Toyopearl resin, free amino terminal] is lower in % unbound [14C]: 87% for the first, 64% for the second.

In the case of PFHPG (modifications not checked) [peptide 100, PFHPG, on Toyopearl resin, free amino terminal], the % unbound [14C] is reported as 88%.

Biological target: radiolabelled octapeptide repeat *acetyl[…]amide (SEQ ID NO:2) (Homo sapiens, UniProt P04156)
Details: not given

GFFFWW [Peptide 89] was tested, and the “binding of octapeptide to resin (in words)” value was “highest affinity binder”.

Same assay, conditions: pH 7.4

SFPYYY [Peptide 92] and LAWFWR [Peptide 88] are the same in “% unbound [14C]” value: 90% for the first, 90% for the second.

Compared with PFHPG [Peptide 100], WFPHFF [Peptide 102] is lower in “% unbound [14C]” value: 88% for the first, 64% for the second.

Going from LLIWIP [Peptide 84] to YVFNWY [Peptide 87], the “% unbound [14C]” value falls from 89% to 45%.

Going from WIPPYN [Peptide 101] to RWIISL [Peptide 113], the “% unbound [14C]” value rises from 84% to 89%.

First: IFFWIK [Peptide 112]
Second: HKEQGA [Peptide 119]
The “% unbound [14C]” value of the first is lower: 77% for the first, 91% for the second.

Going from LWWLFV [Peptide 111] to SNYGPY [Peptide 99], the “% unbound [14C]” value falls from 85% to 79%.

Compared with LLLVIA [Peptide 94], VFEYIK [Peptide 115] is higher in “% unbound [14C]” value: 83% for the first, 87% for the second.

Compared with IQIWIF [Peptide 110], TGIPII [Peptide 118] is higher in “% unbound [14C]” value: 85% for the first, 88% for the second.

Going from GFFFWW [Peptide 89] to LRVIIS [Peptide 96], the “% unbound [14C]” value rises from 23% to 90%.

Going from YFIWWE [Peptide 91] to WLVWIA [Peptide 116], the “% unbound [14C]” value rises from 58% to 85%.

Compared with WLYWIP [Peptide 85], QLGHQW [Peptide 97] is lower in “% unbound [14C]” value: 90% for the first, 85% for the second.

First: FYVFTA [90/98]
Second: YWFIYI [Peptide 117]
The “% unbound [14C]” value of the first is lower: 82% for the first, 83% for the second.

Compared with SLEEYV [Peptide 95], LEIRLA [Peptide 93] is higher in “% unbound [14C]” value: 89% for the first, 96% for the second.

First: QWWFII [Peptide 114]
Second: WEFYWF [Peptide 86]
The “% unbound [14C]” value of the first is higher: 87% for the first, 76% for the second.
